PubChem BioAssay (NCI)
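How tested: cells in 96-well plates exposed to compound for 48 hours at five concentrations. Definition used: TGI = concentration required for complete inhibition of growth.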

Legend:
Assay in all cases: growth of human tumour cells (NCI), 48 h
[1] = tested on: ACHN renal
[2] = tested on: NCI-H522 lung
[3] = tested on: CCRF-CEM leukemia
[4] = tested on: TK-10 renal
[5] = tested on: SN12C renal
[6] = tested on: UACC-62 melanoma
[7] = tested on: BT-549 breast
[8] = tested on: NCI-H23 lung
[9] = tested on: SNB-75 CNS
[10] = tested on: HCT-15 colon
[11] = tested on: 786-0 renal
[12] = tested on: RXF 393 renal
[13] = tested on: SF-295 CNS
[14] = tested on: IGROV1 ovarian
[15] = tested on: OVCAR-4 ovarian
[16] = tested on: CAKI-1 renal
[17] = tested on: DU-145 prostate
[18] = tested on: SK-MEL-28 melanoma
[19] = tested on: OVCAR-8 ovarian
[20] = tested on: NCI-H460 lung
[21] = tested on: RPMI-8226 leukemia
[22] = tested on: SF-268 CNS
[23] = tested on: LOX IMVI melanoma
[24] = tested on: EKVX NSCLC
[25] = tested on: SK-MEL-2 melanoma
[26] = tested on: MOLT-4 leukemia
[27] = tested on: MALME-3M melanoma
[28] = tested on: SNB-19 CNS
[29] = tested on: HCT-116 colon
[30] = tested on: MDA-MB-435
[31] = tested on: MDA-MB-231 breast
[32] = tested on: NCI/ADR-RES ovarian
[33] = tested on: HS 578T breast
[34] = tested on: K-562 leukemia
[35] = tested on: PC-3 prostate
[36] = tested on: HOP-92 NSCLC
[37] = tested on: HCC-2998 colon
[38] = tested on: HT29 colon
[39] = tested on: UACC-257 melanoma
[40] = tested on: SK-MEL-5 melanoma
[41] = tested on: A498 renal
[42] = tested on: MDA-N
[43] = tested on: T-47D breast
[44] = tested on: M14 melanoma
[45] = tested on: KM12 colon
[46] = tested on: SW-620 colon
[47] = tested on: COLO 205 colon
[48] = tested on: MCF7 breast
[49] = tested on: OVCAR-3 ovarian
[50] = tested on: SR leukemia
[51] = tested on: HOP-62 NSCLC
[52] = tested on: OVCAR-5 ovarian
[53] = tested on: UO-31 renal
[54] = tested on: U251 CNS
[55] = tested on: A549 NSCLC
[56] = tested on: SK-OV-3 ovarian
[57] = tested on: SF-539 CNS
[58] = tested on: NCI-H226 lung

With CC(=O)Oc1ccc(/C=C/C(=O)O[C@H]2CCCC[C@@H]2OC(=O)/C=C/c2ccc(OC(C)=O)c(OC(C)=O)c2)cc1OC(C)=O the TGI [1] was 33.4 µM, the TGI [2] was 22.3 µM and the TGI [3] was 16.9 µM. It also gave a TGI [4] of 63.2 µM, a TGI [5] of 29.8 µM and a TGI [6] of 17.7 µM. It also gave a TGI [7] of 36.9 µM, a TGI [8] of 27 µM and a TGI [9] of 58.3 µM. The TGI [10] was 31.2 µM, the TGI [11] was 36 µM and the TGI [12] was 27.7 µM. For the same compound, the TGI [13] was 19 µM, the TGI [14] was 64.9 µM and the TGI [15] was > 100 µM. For the same compound, the TGI [16] was > 100 µM, the TGI [17] was 33.7 µM and the TGI [18] was 33.1 µM. The TGI [19] was 61.7 µM, the TGI [20] was > 100 µM and the TGI [21] was 31.9 µM. The TGI [22] was 32.6 µM, the TGI [23] was 15.4 µM and the TGI [24] was 44 µM. For the same compound, the TGI [25] was 53.1 µM, the TGI [26] was 34.8 µM and the TGI [27] was 37.1 µM. For the same compound, the TGI [28] was 27.6 µM, the TGI [29] was 20.3 µM and the TGI [30] was 32.7 µM. The TGI [31] was > 100 µM, the TGI [32] was > 100 µM and the TGI [33] was > 100 µM. For the same compound, the TGI [34] was > 100 µM, the TGI [35] was > 100 µM and the TGI [36] was 33.7 µM. The TGI [37] was 32.6 µM, the TGI [38] was > 100 µM and the TGI [39] was 52.6 µM. It also gave a TGI [40] of 15.1 µM, a TGI [41] of 38.2 µM and a TGI [42] of 27.5 µM. The TGI [43] was 47.1 µM, the TGI [44] was 25.6 µM and the TGI [45] was 60.2 µM. The TGI [46] was 10.6 µM, the TGI [47] was 46.6 µM and the TGI [48] was 42.9 µM. The TGI [49] was 95.7 µM, the TGI [50] was > 100 µM and the TGI [51] was 32.2 µM. For the same compound, the TGI [52] was 28.4 µM, the TGI [53] was 20.6 µM and the TGI [54] was > 100 µM. For the same compound, the TGI [55] was > 100 µM, the TGI [56] was 27.4 µM and the TGI [57] was > 100 µM.
Compound c1ccc(N=C2SC3=NCCN3C2=Nc2ccccc2)cc1 has a TGI [2] of 30.4 µM, a TGI [3] of 11.8 µM and a TGI [5] of 70 µM. It also gave a TGI [6] of 22.7 µM, a TGI [7] of 34.7 µM and a TGI [8] of 52.9 µM. For the same compound, the TGI [9] was 43.3 µM, the TGI [10] was 61.4 µM and the TGI [12] was 32.2 µM. For the same compound, the TGI [13] was 41.7 µM, the TGI [58] was 36.3 µM and the TGI [16] was 38.2 µM. The TGI [17] was 28.8 µM, the TGI [18] was 35 µM and the TGI [19] was > 100 µM. The TGI [20] was 50.6 µM, the TGI [21] was 83.8 µM and the TGI [25] was 76.5 µM. It also gave a TGI [26] of 77 µM, a TGI [28] of 32.5 µM and a TGI [29] of 26.8 µM. The TGI [30] was 43 µM, the TGI [31] was 60.5 µM and the TGI [32] was > 100 µM. The TGI [33] was > 100 µM, the TGI [34] was > 100 µM and the TGI [35] was 60.6 µM. For the same compound, the TGI [36] was 60.6 µM, the TGI [37] was 52.4 µM and the TGI [38] was 41.3 µM. It also gave a TGI [40] of 28.9 µM, a TGI [41] of 36.4 µM and a TGI [42] of 41.2 µM. The TGI [43] was 44.4 µM, the TGI [44] was 37.8 µM and the TGI [45] was 29.7 µM. It also gave a TGI [47] of 33.3 µM, a TGI [48] of 24.9 µM and a TGI [49] of 36 µM. The TGI [50] was > 100 µM, the TGI [51] was 52.9 µM and the TGI [52] was 34.9 µM. For the same compound, the TGI [53] was 26.4 µM, the TGI [54] was 33.5 µM and the TGI [56] was > 100 µM.
